Laboratory results as given in the supplement of paper PMC11061612.

Legend:
[1] = test system: NCI-H1869 (Non-Small Cell Lung Carcinoma); assay: Bliss excess, mean over the matrix (fraction); higher = more synergy
Procedure, shortened: (§1)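 Cell lines grown in DMEM/F12 or RPMI with 10% FBS were plated in 1536-well plates and held 24 hours at 37°C, 5% CO2 before 72 hours of exposure to two-drug dose matrices, with DMSO typically at 0.2%. CellTiter-Glo 2.0 luminescence gave viability, which was converted to inhibition. Vehicle wells were set to 0 and blank wells to 1. Combination Emax is the second-highest inhibition in the matrix, and Bliss excess is the observed combination effect minus the expected EA + EB − EA·EB, where EA and EB are the single-agent effects.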

[2] = test system: Hs-578-T (Breast Carcinoma); assay: combination Emax (second highest fraction inhibited in the dose matrix, 72 h); higher = more inhibition; extreme values may be limits of the assay
Procedure, shortened: as §1

AGS (Gastric Carcinoma) = assay: as above
Procedure, shortened: as §1

[3] = test system: COLO-205 (Colorectal Carcinoma); assay: as above
Procedure, shortened: as §1

[4] = test system: HT-1376 (Bladder Carcinoma); assay: as above
Procedure, shortened: as §1

[5] = test system: MDA-MB-361 (Breast Carcinoma); assay: as above
Procedure, shortened: as §1

[6] = test system: LS-180 (Colorectal Carcinoma); assay: as above
Procedure, shortened: as §1

[7] = test system: DoTc2-4510 (Cervical Carcinoma); assay: as above
Procedure, shortened: as §1

T98G (Glioblastoma) = assay: as above
Procedure, shortened: as §1

[8] = test system: NCI-H1869 (Non-Small Cell Lung Carcinoma); assay: as above
Procedure, shortened: as §1

[9] = test system: B-CPAP (Thyroid Gland Carcinoma); assay: as above
Procedure, shortened: as §1

[10] = test system: HO-1-N-1 (Oral Cavity Carcinoma); assay: as above
Procedure, shortened: as §1

[11] = test system: NCI-H82 (Small Cell Lung Carcinoma); assay: as above
Procedure, shortened: as §1

[12] = test system: SK-ES-1 (Ewing's Sarcoma); assay: as above
Procedure, shortened: as §1
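Wherever Bliss excess, mean over the matrix is given: after 72 h of two-drug dosing.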

| Structure (SMILES) | Bliss excess [1] | combination Emax [2] | combination Emax (AGS (Gastric Carcinoma)) | combination Emax [3] | combination Emax [4] | combination Emax [5] | combination Emax [6] | combination Emax [7] | combination Emax (T98G (Glioblastoma)) | combination Emax [8] | combination Emax [9] | combination Emax [10] | combination Emax [11] | combination Emax [12] |
| --- | --- | --- | --- | --- | --- | --- | --- | --- | --- | --- | --- | --- | --- | --- |
| CN(C)CCCOc1ccc(-c2ccc3ncc4c(c3c2)n(C2CCOCC2)c(=O)n4C)cn1 [AZD0156] + O=C(c1cc(Cc2n[nH]c(=O)c3ccccc23)ccc1F)N1CCN(C(=O)C2CC2)CC1 [Olaparib] (first compound max 3 µM, partner max 3 µM) | -0.0306 | 0.519 | 0.392 | 0.365 | 0.115 | 0.384 | 0.24 | 0.206 | 0.287 | 0.19 | 0.34 | 0.346 | 0.382 | 0.804 |
| C=CCn1c(=O)c2cnc(Nc3ccc(N4CCN(C)CC4)cc3)nc2n1-c1cccc(C(C)(C)O)n1 [AZD1775] + C1CN(CCC1(C(=O)N[C@@H](CCO)C2=CC=C(C=C2)Cl)N)C3=NC=NC4=C3C=CN4 [Capivasertib] (first compound max 3 µM, partner max 3 µM) | 0.0342 | 0.841 | 0.976 | 0.832 | 0.355 | 0.851 | 0.734 | 0.723 | 0.785 | 0.388 | 0.815 | 0.781 | 0.884 | 0.883 |
| C=CCn1c(=O)c2cnc(Nc3ccc(N4CCN(C)CC4)cc3)nc2n1-c1cccc(C(C)(C)O)n1 [AZD1775] + O=C(c1cc(Cc2n[nH]c(=O)c3ccccc23)ccc1F)N1CCN(C(=O)C2CC2)CC1 [Olaparib] (first compound max 1 µM, partner max 10 µM) | – | 0.839 | 0.547 | 0.336 | 0.425 | 0.861 | 0.574 | 0.458 | 0.675 | – | 0.456 | 0.437 | 0.851 | 0.954 |
| CCc1c2c(nc3ccc(O)cc13)-c1cc3c(c(=O)n1C2)COC(=O)[C@]3(O)CC [SN-38] + CN(C)CCCOc1ccc(-c2ccc3ncc4c(c3c2)n(C2CCOCC2)c(=O)n4C)cn1 [AZD0156] (first compound max 0.3 µM, 7x7, partner max 1 µM) | – | 0.635 | 0.814 | 0.509 | 0.118 | 0.397 | 0.713 | 0.972 | 0.546 | – | 0.867 | 1 | 0.824 | 1 |
| NC1(C(=O)N[C@@H](CCO)c2ccc(Cl)cc2)CCN(c2ncnc3[nH]ccc23)CC1 [Capivasertib] + CC(C)n1c(=O)n(C)c2cnc3cc(F)c(-c4ccc(OCCCN5CCCCC5)nc4)cc3c21 [AZD1390] (first compound max 10 µM, 7x7, partner max 0.3 µM) | – | 0.682 | 0.444 | 0.416 | 0.144 | 0.44 | 0.33 | 0.234 | 0.449 | – | 0.261 | 0.435 | 0.912 | 0.448 |
| CN(CCO)CC[C@H](CSc1ccccc1)Nc1ccc(S(=O)(=O)NC(=O)c2ccc(N3CCC([C@@H](O)c4ccccc4-c4ccc(Cl)cc4)CC3)cc2)cc1S(=O)(=O)C(F)(F)F [AZD4320] + Cn1cnc2c(F)c(Nc3ccc(Br)cc3Cl)c(C(=O)NOCCO)cc21 [Selumetinib] (first compound max 1 µM, 7x7, partner max 3 µM) | – | 0.812 | 1 | 1 | 0.687 | 0.334 | 0.691 | 0.906 | 0.277 | – | 0.741 | 0.619 | 0.265 | 0.983 |
| Cc1c2c(nn1C)CSCc1cc(n(C)n1)CSc1cc(c3ccccc3c1)OCCCc1c(C(=O)O)n(C)c3c-2c(Cl)ccc13 [AZD5991] + C=CCn1c(=O)c2cnc(Nc3ccc(N4CCN(C)CC4)cc3)nc2n1-c1cccc(C(C)(C)O)n1 [AZD1775] (first compound max 1 µM, partner max 1 µM) | – | 0.874 | 0.781 | 0.684 | 0.459 | 0.899 | 0.47 | 0.523 | 0.674 | – | 0.467 | 0.812 | 0.966 | 0.985 |
| COc1cccc(OCCCN)c1-c1cc(Nc2cnc(C#N)cn2)n[nH]1 [Prexasertib] + CCc1c2c(nc3ccc(O)cc13)-c1cc3c(c(=O)n1C2)COC(=O)[C@]3(O)CC [SN-38] (first compound max 1 µM, 7x7, partner max 0.3 µM) | – | 0.982 | 0.93 | 0.938 | 0.529 | 0.913 | 0.759 | 0.964 | 0.904 | – | 0.968 | 1 | 1 | 1 |
| CC1(C)CCC(CN2CCN(c3ccc(C(=O)NS(=O)(=O)c4ccc(NCC5CCOCC5)c([N+](=O)[O-])c4)c(Oc4cnc5[nH]ccc5c4)c3)CC2)=C(c2ccc(Cl)cc2)C1 [Venetoclax] + CN(C)CCCOc1ccc(-c2ccc3ncc4c(c3c2)n(C2CCOCC2)c(=O)n4C)cn1 [AZD0156] (first compound max 1 µM, 7x7, partner max 1 µM) | – | 0.793 | 0.221 | 0.237 | 0.189 | 0.261 | 0.166 | 0.268 | 0.332 | – | 0.28 | 0.53 | 0.343 | 0.374 |
| COc1nnc2ccc(N3CCC(c4ccc(OCCN5CCN(C)C(=O)[C@H]5C)cc4)CC3)nn12 [AZD5153] + C=CCn1c(=O)c2cnc(Nc3ccc(N4CCN(C)CC4)cc3)nc2n1-c1cccc(C(C)(C)O)n1 [AZD1775] (first compound max 1 µM, partner max 1 µM) | – | 0.822 | 0.923 | 0.79 | 0.517 | 0.791 | 0.623 | 0.473 | 0.717 | – | 0.734 | 0.813 | 0.914 | 0.941 |
| CC1(C)CCC(CN2CCN(c3ccc(C(=O)NS(=O)(=O)c4ccc(NCC5CCOCC5)c([N+](=O)[O-])c4)c(Oc4cnc5[nH]ccc5c4)c3)CC2)=C(c2ccc(Cl)cc2)C1 [Venetoclax] + COc1cc(Nc2ncc3c(n2)-c2ccc(Cl)cc2C(c2c(F)cccc2OC)=NC3)ccc1C(=O)O [Alisertib] (first compound max 1 µM, 7x7, partner max 10 µM) | – | 0.851 | 0.557 | 0.693 | 0.246 | 0.773 | 0.489 | 0.421 | 0.556 | – | 0.598 | 0.876 | 0.73 | 1 |
| CCN(CCO)CCCOc1ccc2c(Nc3cc(CC(=O)Nc4cccc(F)c4)[nH]n3)ncnc2c1 [AZD2811] + O=C(c1cc(Cc2n[nH]c(=O)c3ccccc23)ccc1F)N1CCN(C(=O)C2CC2)CC1 [Olaparib] (first compound max 1 µM, 7x7, partner max 10 µM) | – | 0.622 | 0.302 | 0.868 | 0.218 | 0.27 | 0.36 | 0.297 | 0.453 | – | 0.231 | 0.824 | 0.615 | 0.954 |
| CC1(C)CCC(CN2CCN(c3ccc(C(=O)NS(=O)(=O)c4ccc(NCC5CCOCC5)c([N+](=O)[O-])c4)c(Oc4cnc5[nH]ccc5c4)c3)CC2)=C(c2ccc(Cl)cc2)C1 [Venetoclax] + CCN(CCO)CCCOc1ccc2c(Nc3cc(CC(=O)Nc4cccc(F)c4)[nH]n3)ncnc2c1 [AZD2811] (first compound max 1 µM, 7x7, partner max 1 µM) | – | 0.802 | 0.346 | 0.713 | 0.183 | 0.334 | 0.244 | 0.235 | 0.394 | – | 0.206 | 0.687 | 0.457 | 1 |
| C[C@@H](c1ccc2nccn2c1)n1nnc2ncc(-c3cnn(C)c3)nc21 [Savolitinib] + Cc1c2c(nn1C)CSCc1cc(n(C)n1)CSc1cc(c3ccccc3c1)OCCCc1c(C(=O)O)n(C)c3c-2c(Cl)ccc13 [AZD5991] (first compound max 1 µM, 7x7, partner max 1 µM) | – | 0.47 | 0.241 | 0.0758 | 0.179 | 0.735 | 0.199 | 0.205 | 0.12 | – | 0.211 | 0.488 | 0.875 | 0.781 |
| Cc1cc2ncnn2cc1Nc1ncc2c(n1)n(C1CCOCC1)c(=O)n2C [AZD7648] + C=CCn1c(=O)c2cnc(Nc3ccc(N4CCN(C)CC4)cc3)nc2n1-c1cccc(C(C)(C)O)n1 [AZD1775] (first compound max 10 µM, partner max 1 µM) | – | 0.77 | 0.736 | 0.678 | 0.408 | 0.824 | 0.5 | 0.531 | 0.711 | – | 0.479 | 0.532 | 0.853 | 0.946 |
